Calls of active or inactive are those of the source. No cut-off for these calls is given here.
What was measured:
[1] = biological target: T1, Protein cereblon/ALK tyrosine kinase receptor (Homo sapiens, UniProt Q9UM73+Q96SW2); experiment: Protac activity at CRBN/ALK in human SR cells assessed as protein abundance at 500 nM by Western blot analysis (reference value: 1); assay type: cell-based
[2] = biological target: T1, Protein cereblon/ALK tyrosine kinase receptor; experiment: Protac activity at CRBN/ALK in human SR cells assessed as protein abundance at 50 nM by Western blot analysis (reference value: 1); assay type: cell-based
SR = experiment: Antiproliferative activity against ALK positive human SR cells; assay type: functional, cell-based
[3] = biological target: T1, Protein cereblon/ALK tyrosine kinase receptor; experiment: Protac activity at CRBN/ALK in human SR cells assessed as protein abundance at 0.5 nM by Western blot analysis (reference value: 1); assay type: cell-based
[4] = biological target: T1, Protein cereblon/ALK tyrosine kinase receptor; experiment: Protac activity at CRBN/ALK in human SR cells assessed as protein abundance at 0.05 nM by Western blot analysis (reference value: 1); assay type: cell-based
[5] = biological target: T1, Protein cereblon/ALK tyrosine kinase receptor; experiment: Protac activity at CRBN/ALK in human SR cells assessed as protein abundance at 5 nM by Western blot analysis (reference value: 1); assay type: cell-based
[6] = biological target: T1, Protein cereblon/ALK tyrosine kinase receptor; experiment: Protac activity at CRBN/ALK in human SR cells assessed as increase in ALK degradation at 500 nM by Western blot analysis; assay type: cell-based
[7] = biological target: von Hippel-Lindau disease tumor suppressor/ALK tyrosine kinase receptor (Homo sapiens) (UniProt Q9UM73+P40337); experiment: Protac activity at VHL1/ALK in human SR cells assessed as increase in ALK degradation at 500 nM by Western blot analysis; assay type: cell-based
Chain of von Hippel-Lindau disease tumor suppressor/ALK tyrosine kinase receptor (Homo sapiens) (P40337 whole entry partner): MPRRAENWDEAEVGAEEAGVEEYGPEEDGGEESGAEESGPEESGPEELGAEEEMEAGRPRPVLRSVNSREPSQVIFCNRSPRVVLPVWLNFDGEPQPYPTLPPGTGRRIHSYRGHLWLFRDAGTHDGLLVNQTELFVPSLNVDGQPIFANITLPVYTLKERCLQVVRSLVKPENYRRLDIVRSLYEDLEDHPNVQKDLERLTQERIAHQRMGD
Chain of von Hippel-Lindau disease tumor suppressor/ALK tyrosine kinase receptor (Homo sapiens) (Q9UM73 19-1620 limits assumed): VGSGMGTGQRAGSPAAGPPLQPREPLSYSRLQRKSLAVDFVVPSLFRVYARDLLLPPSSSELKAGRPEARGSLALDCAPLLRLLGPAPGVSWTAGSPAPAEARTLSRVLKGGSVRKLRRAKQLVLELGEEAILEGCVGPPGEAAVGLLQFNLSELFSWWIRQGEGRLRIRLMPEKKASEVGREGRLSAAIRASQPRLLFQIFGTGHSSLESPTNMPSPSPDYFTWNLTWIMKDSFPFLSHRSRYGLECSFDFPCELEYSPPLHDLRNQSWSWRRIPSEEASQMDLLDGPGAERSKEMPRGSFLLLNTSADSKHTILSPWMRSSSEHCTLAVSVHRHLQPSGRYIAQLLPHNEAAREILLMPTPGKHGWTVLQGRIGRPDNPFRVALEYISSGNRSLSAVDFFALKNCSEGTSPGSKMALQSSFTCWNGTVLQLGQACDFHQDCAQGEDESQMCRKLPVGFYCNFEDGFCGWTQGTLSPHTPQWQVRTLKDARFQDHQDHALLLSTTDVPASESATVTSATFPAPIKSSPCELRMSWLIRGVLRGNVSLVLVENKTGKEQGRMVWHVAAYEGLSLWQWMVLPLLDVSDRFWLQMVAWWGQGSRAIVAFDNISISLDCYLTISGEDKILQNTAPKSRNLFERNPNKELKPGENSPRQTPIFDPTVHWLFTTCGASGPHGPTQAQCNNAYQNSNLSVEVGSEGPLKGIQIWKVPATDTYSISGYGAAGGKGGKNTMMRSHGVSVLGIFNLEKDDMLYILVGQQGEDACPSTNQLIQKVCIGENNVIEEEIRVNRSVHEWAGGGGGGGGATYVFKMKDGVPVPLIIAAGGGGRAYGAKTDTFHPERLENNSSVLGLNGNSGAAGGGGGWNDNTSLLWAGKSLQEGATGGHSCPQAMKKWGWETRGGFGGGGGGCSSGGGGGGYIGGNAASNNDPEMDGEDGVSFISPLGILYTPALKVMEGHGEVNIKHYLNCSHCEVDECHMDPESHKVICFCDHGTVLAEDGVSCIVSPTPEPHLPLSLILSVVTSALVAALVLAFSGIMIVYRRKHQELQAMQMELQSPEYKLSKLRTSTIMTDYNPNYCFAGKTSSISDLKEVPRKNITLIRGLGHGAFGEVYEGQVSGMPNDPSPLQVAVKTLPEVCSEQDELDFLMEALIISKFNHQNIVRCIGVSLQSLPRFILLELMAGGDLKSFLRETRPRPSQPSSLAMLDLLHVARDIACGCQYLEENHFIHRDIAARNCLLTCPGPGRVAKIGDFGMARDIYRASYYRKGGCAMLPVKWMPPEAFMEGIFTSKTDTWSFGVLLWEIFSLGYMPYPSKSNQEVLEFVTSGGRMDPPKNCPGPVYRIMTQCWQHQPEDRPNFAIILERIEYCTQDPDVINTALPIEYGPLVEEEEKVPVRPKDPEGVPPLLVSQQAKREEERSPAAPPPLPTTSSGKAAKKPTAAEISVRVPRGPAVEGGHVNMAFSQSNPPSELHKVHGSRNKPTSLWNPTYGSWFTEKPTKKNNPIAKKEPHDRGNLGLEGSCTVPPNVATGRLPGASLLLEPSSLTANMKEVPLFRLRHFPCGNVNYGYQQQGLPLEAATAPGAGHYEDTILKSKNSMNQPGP

T1 sequence (Q96SW2 whole entry partner): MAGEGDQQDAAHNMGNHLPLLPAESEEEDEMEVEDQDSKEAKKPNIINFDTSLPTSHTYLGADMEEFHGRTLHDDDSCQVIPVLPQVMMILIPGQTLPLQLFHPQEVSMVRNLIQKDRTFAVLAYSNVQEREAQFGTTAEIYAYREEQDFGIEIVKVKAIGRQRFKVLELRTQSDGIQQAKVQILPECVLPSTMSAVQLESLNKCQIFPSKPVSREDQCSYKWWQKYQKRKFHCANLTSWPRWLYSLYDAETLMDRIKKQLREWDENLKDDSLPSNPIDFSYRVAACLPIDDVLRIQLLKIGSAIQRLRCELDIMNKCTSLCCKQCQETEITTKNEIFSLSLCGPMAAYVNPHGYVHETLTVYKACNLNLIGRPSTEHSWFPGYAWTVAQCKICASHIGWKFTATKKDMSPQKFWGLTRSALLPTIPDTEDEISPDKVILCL
T1 sequence (Q9UM73 19-1620 limits assumed): as the sequence (Q9UM73 19-1620 limits assumed) above

| SMILES | IC50 (SR) [nM] | further results |
| --- | --- | --- |
| CCc1cc2c(cc1N1CCC(N3CCN(CCCCCC#Cc4cccc5c4CN(C4CCC(=O)NC4=O)C5=O)CC3)CC1)C(C)(C)c1[nH]c3cc(C#N)ccc3c1C2=O (stereo not given) | 1.8 | Activity [1]: 0.69; Activity [2]: 0.67; Activity [3]: 1.09; Activity [4]: 1.08; Activity [5]: 0.76 |
| CCc1cc2c(cc1N1CCN(C(=O)CCCCCNc3cccc4c3C(=O)N(C3CCC(=O)NC3=O)C4=O)CC1)C(C)(C)c1[nH]c3cc(C#N)ccc3c1C2=O (stereo not given) | 15.1 |  |
| CCc1cc2c(cc1N1CCC(N3CCN(C(=O)CCOCCOCCOCCOCCNc4cccc5c4C(=O)N(C4CCC(=O)NC4=O)C5=O)CC3)CC1)C(C)(C)c1[nH]c3cc(C#N)ccc3c1C2=O (stereo not given) | 3.1 | Activity [6]: Active; Activity [1]: 0.53; Activity [2]: 0.7; Activity [3]: 1.03; Activity [4]: 1.01; Activity [5]: 0.96 |
| COc1cc(N2CCC(N3CCN(C)CC3)CC2)ccc1Nc1ncc(Cl)c(Nc2ccccc2P(C)(C)=O)n1 [BRIGATINIB] | 1.9 |  |
| Cc1cc(Nc2ncc(Cl)c(Nc3ccccc3S(=O)(=O)C(C)C)n2)c(OC(C)C)cc1C1CCN(C(=O)NCCOCCOCCOCCOCCOCCNC(=O)CNc2cccc3c2C(=O)N(C2CCC(=O)NC2=O)C3=O)CC1 (stereo not given) | 13.8 |  |
| CCc1cc2c(cc1N1CCC(NC(=O)CCOCCOCCNc3cccc4c3C(=O)N(C3CCC(=O)NC3=O)C4=O)CC1)C(C)(C)c1[nH]c3cc(C#N)ccc3c1C2=O (stereo not given) | 12 |  |
| CCc1cc2c(cc1N1CCC(NC(=O)CCCCCNc3cccc4c3C(=O)N(C3CCC(=O)NC3=O)C4=O)CC1)C(C)(C)c1[nH]c3cc(C#N)ccc3c1C2=O (stereo not given) | 3.8 |  |
| CCc1cc2c(cc1N1CCC(N)CC1)C(C)(C)c1[nH]c3cc(C#N)ccc3c1C2=O | 2.8 |  |
| CCc1cc2c(cc1N1CCC(N3CCN(CCCCCCCC#Cc4cccc5c4CN(C4CCC(=O)NC4=O)C5=O)CC3)CC1)C(C)(C)c1[nH]c3cc(C#N)ccc3c1C2=O (stereo not given) | 3.3 |  |
| CCc1cc2c(cc1N1CCC(N3CCN(C(=O)CCCCCNc4cccc5c4CN(C4CCC(=O)NC4=O)C5=O)CC3)CC1)C(C)(C)c1[nH]c3cc(C#N)ccc3c1C2=O (stereo not given) | 4 |  |
| CCc1cc2c(cc1N1CCC(NC(=O)CCOCCOCCOCCOCCNc3cccc4c3C(=O)N(C3CCC(=O)NC3=O)C4=O)CC1)C(C)(C)c1[nH]c3cc(C#N)ccc3c1C2=O (stereo not given) | 5.9 |  |
| CCc1cc2c(cc1N1CCC(N3CCN(C(=O)CNc4cccc5c4C(=O)N(C4CCC(=O)NC4=O)C5=O)CC3)CC1)C(C)(C)c1[nH]c3cc(C#N)ccc3c1C2=O (stereo not given) | 4.1 | Activity [7]: Active |
| Cc1cc(Nc2ncc(Cl)c(Nc3ccccc3S(=O)(=O)C(C)C)n2)c(OC(C)C)cc1C1CCNCC1 [CERITINIB] | 2.2 |  |
| CCc1cc2c(cc1N1CCC(N3CCNCC3)CC1)C(C)(C)c1[nH]c3cc(C#N)ccc3c1C2=O | 4.9 |  |
| CCc1cc2c(cc1N1CCN(C(=O)CCOCCOCCOCCOCCNc3cccc4c3C(=O)N(C3CCC(=O)NC3=O)C4=O)CC1)C(C)(C)c1[nH]c3cc(C#N)ccc3c1C2=O (stereo not given) | 11.9 |  |
| CCc1cc2c(cc1N1CCN(C(=O)CCCNc3cccc4c3C(=O)N(C3CCC(=O)NC3=O)C4=O)CC1)C(C)(C)c1[nH]c3cc(C#N)ccc3c1C2=O (stereo not given) | 9.2 |  |
| CCc1cc2c(cc1N1CCC(NC(=O)CNc3cccc4c3C(=O)N(C3CCC(=O)NC3=O)C4=O)CC1)C(C)(C)c1[nH]c3cc(C#N)ccc3c1C2=O (stereo not given) | 13.5 |  |
| CCc1cc2c(cc1N1CCC(N3CCN(CCCCCCC#Cc4cccc5c4CN(C4CCC(=O)NC4=O)C5=O)CC3)CC1)C(C)(C)c1[nH]c3cc(C#N)ccc3c1C2=O (stereo not given) | 1.6 |  |

— ChEMBL document CHEMBL4814007, “Structure-based discovery of SIAIS001 as an oral bioavailability ALK degrader constructed from Alectinib” (Eur J Med Chem, 2021)
